From patent US12509444B2, “Compounds and methods for CD73 modulation and indications therefor” (Plexxikon Inc., priority 2019, dated 2025)

How the values were obtained:
[1] = target: T1, Human CD73 (amino acid residues 27-549) (Homo sapiens, UniProt P21589); test: CD73 enzymatic assay (luciferase-based indirect assay, CellTiter-Glo); assay type: biochemical; conditions: 0.4 nM CD73, 150 μM AMP, 1 hour at room temperature
T1 construct: Human CD73 (amino acid residues 27-549); His tag (N); made in house; host or cells: E. coli
T1 sequence (P21589 27-549): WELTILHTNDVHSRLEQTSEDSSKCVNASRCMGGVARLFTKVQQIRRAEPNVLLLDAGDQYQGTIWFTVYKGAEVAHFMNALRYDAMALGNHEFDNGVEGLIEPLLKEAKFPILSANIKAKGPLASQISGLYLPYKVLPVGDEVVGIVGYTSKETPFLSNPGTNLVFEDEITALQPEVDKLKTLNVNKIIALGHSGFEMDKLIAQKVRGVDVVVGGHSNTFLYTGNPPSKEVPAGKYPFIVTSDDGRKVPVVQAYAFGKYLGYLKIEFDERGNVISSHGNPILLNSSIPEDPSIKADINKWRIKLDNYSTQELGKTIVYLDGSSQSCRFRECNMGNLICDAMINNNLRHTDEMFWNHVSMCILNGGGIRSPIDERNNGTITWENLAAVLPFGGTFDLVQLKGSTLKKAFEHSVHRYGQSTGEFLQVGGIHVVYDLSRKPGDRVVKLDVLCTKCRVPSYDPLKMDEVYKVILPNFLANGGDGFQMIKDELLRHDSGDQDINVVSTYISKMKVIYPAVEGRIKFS
Summary of the method: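 Residual AMP inhibits luciferase, so luminescence reports CD73 turnover; read with CellTiter-Glo 2.0 plus 1 μM final ATP, 30 min. Reaction used 0.4 nM N-His CD73 (27-549, E. coli), 150 μM AMP, HEPES pH 7.4 with Tween 20, 1 h at room temperature. IC50 fitted by nonlinear regression.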

human CD73 = target: T2, human CD73 (Homo sapiens, UniProt P21589); test: Inhibitor activity against CD73 in cell based assay (CD73 expressing CHO-K1 cells); conditions: CHO-K1 cells expressing human CD73, 150 μM AMP, 4 hours of incubation; read-out: CHO-K1 CELL VARIANT: CD73 IC50
T2 construct: expressed in transfected cells
T2 sequence (P21589 27-549): T1 sequence (P21589 27-549)
Summary of the method: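 Residual supernatant AMP was quantified via CellTiter-Glo luminescence (1 μM ATP added, 30 min, room temperature) after a 4 h exposure of human CD73-expressing CHO-K1 cells to 150 μM AMP plus compound, top final 10 μM, 8 points. IC50 came from nonlinear regression of percent inhibition.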

Row | IC50 [1] | IC50 (human CD73) | SMILES
1 | 0.001 to 10 µM | 0.001 to 10 µM | O=C(NC1CCN(C(=O)NC2CC2)CC1)O[C@@H]1CCN(c2cn[nH]c(=O)c2Cl)C1 [P-0146, (R)-1-(5-chloro-6-oxo-1,6-dihydropyridazin-4-yl)pyrrolidin-3-yl (1-(cyclopropylcarbamoyl)piperidin-4-yl)carbamate]
2 | 0.001 to 10 µM | 0.001 to 10 µM | O=C(NC1CCN(C(=O)NC2CCCCC2)CC1)O[C@@H]1CCN(c2cn[nH]c(=O)c2Cl)C1 [P-0147, (R)-1-(5-chloro-6-oxo-1,6-dihydropyridazin-4-yl)pyrrolidin-3-yl (1-(cyclohexylcarbamoyl)piperidin-4-yl)carbamate]
3 | 0.001 to 10 µM | 0.001 to 10 µM | O=C(NC1CCN(C(=O)Nc2ccc(F)cc2)CC1)O[C@@H]1CCN(c2cn[nH]c(=O)c2Cl)C1 [P-0148, (R)-1-(5-chloro-6-oxo-1,6-dihydropyridazin-4-yl)pyrrolidin-3-yl (1-((4-fluorophenyl)carbamoyl)piperidin-4-yl)carbamate]
4 | 0.001 to 10 µM | 0.001 to 10 µM | NC(=O)N1CCC(NC(=O)O[C@@H]2CCN(c3cn[nH]c(=O)c3Cl)C2)CC1 [P-0149, (R)-1-(5-chloro-6-oxo-1,6-dihydropyridazin-4-yl)pyrrolidin-3-yl (1-carbamoylpiperidin-4-yl)carbamate]
5 | 0.001 to 10 µM | 0.001 to 10 µM | CS(=O)(=O)N1CCC(NC(=O)O[C@@H]2CCN(c3cn[nH]c(=O)c3Cl)C2)CC1 [P-0150, (R)-1-(5-chloro-6-oxo-1,6-dihydropyridazin-4-yl)pyrrolidin-3-yl (1-(methylsulfonyl)piperidin-4-yl)carbamate]
6 | 0.001 to 10 µM | 0.001 to 10 µM | NC(=O)N[C@H]1CC[C@H](NC(=O)O[C@@H]2CCN(c3cn[nH]c(=O)c3Cl)C2)CC1 [P-0156, (R)-1-(5-chloro-6-oxo-1,6-dihydropyridazin-4-yl)pyrrolidin-3-yl ((1r,4R)-4-ureidocyclohexyl)carbamate]
7 | 0.001 to 10 µM | 0.001 to 10 µM | O=CN[C@H]1CC[C@H](NC(=O)O[C@@H]2CCN(c3cn[nH]c(=O)c3Cl)C2)CC1 [P-0157, (R)-1-(5-chloro-6-oxo-1,6-dihydropyridazin-4-yl)pyrrolidin-3-yl ((1r,4R)-4-formamidocyclohexyl) carbamate]
8 | 0.001 to 10 µM | 0.001 to 10 µM | NCC(=O)N1CCC(NC(=O)O[C@@H]2CCN(c3cn[nH]c(=O)c3Cl)C2)CC1 [P-0159, (R)-1-(5-chloro-6-oxo-1,6-dihydropyridazin-4-yl)pyrrolidin-3-yl (1-glycylpiperidin-4-yl)carbamate]
9 | 0.001 to 10 µM | 0.001 to 10 µM | CC(=O)NCC(=O)N1CCC(NC(=O)O[C@@H]2CCN(c3cn[nH]c(=O)c3Cl)C2)CC1 [P-0161, (R)-1-(5-chloro-6-oxo-1,6-dihydropyridazin-4-yl)pyrrolidin-3-yl (1-(acetylglycyl)piperidin-4-yl)carbamate]

Continued, compound first:

Row | SMILES | IC50 [1] | IC50 (human CD73)
10 | C[C@H]1CN(c2cn[nH]c(=O)c2Cl)C[C@@H]1OC(=O)NC1CCC(F)(F)CC1 [P-0139, (3R,4S)-1-(5-chloro-6-oxo-1,6-dihydropyridazin-4-yl)-4-methylpyrrolidin-3-yl (4,4-difluorocyclohexyl)carbamate] | 0.001 to 10 µM | 0.001 to 10 µM
11 | C[C@@H]1CN(c2cn[nH]c(=O)c2Cl)C[C@@H]1OC(=O)NC1CCC(F)(F)CC1 [P-0140, (3R,4R)-1-(5-chloro-6-oxo-1,6-dihydropyridazin-4-yl)-4-methylpyrrolidin-3-yl (4,4-difluorocyclohexyl)carbamate] | 0.001 to 10 µM | 10 to 100 µM
12 | O=C(NC1CCC(F)(F)CC1)O[C@@H]1CN(c2cn[nH]c(=O)c2Cl)C[C@H]1F [P-0141, (3R,4R)-1-(5-chloro-6-oxo-1,6-dihydropyridazin-4-yl)-4-fluoropyrrolidin-3-yl (4,4-difluorocyclohexyl)carbamate] | 0.001 to 10 µM | 0.001 to 10 µM
13 | CCCS(=O)(=O)N[C@H]1CC[C@H](NC(=O)O[C@@H]2CCN(c3cn[nH]c(=O)c3Cl)C2)CC1 [P-0142, (R)-1-(5-chloro-6-oxo-1,6-dihydropyridazin-4-yl)pyrrolidin-3-yl ((1r,4R)-4-(propylsulfonamido)cyclohexyl)carbamate] | 0.001 to 10 µM | 0.001 to 10 µM
14 | O=C(NC1CCC(C(F)(F)F)CC1)O[C@@H]1CCN(c2cn[nH]c(=O)c2Cl)C1 (stereo partly drawn) [P-0143, (R)-1-(5-chloro-6-oxo-1,6-dihydropyridazin-4-yl)pyrrolidin-3-yl (4-(trifluoromethyl)cyclohexyl) carbamate] | 0.001 to 10 µM | 0.001 to 10 µM
15 | CS(=O)(=O)N[C@H]1CC[C@H](NC(=O)O[C@@H]2CCN(c3cn[nH]c(=O)c3C#N)C2)CC1 [P-0144, (R)-1-(5-cyano-6-oxo-1,6-dihydropyridazin-4-yl)pyrrolidin-3-yl ((1r,4R)-4-(methylsulfonamido)cyclohexyl)carbamate] | 0.001 to 10 µM | 0.001 to 10 µM
16 | N#Cc1c(N2CC[C@@H](OC(=O)NC3CCC(F)(F)CC3)C2)cn[nH]c1=O [P-0145, (R)-1-(5-cyano-6-oxo-1,6-dihydropyridazin-4-yl)pyrrolidin-3-yl (4,4-difluorocyclohexyl)carbamate] | 0.001 to 10 µM | 0.001 to 10 µM
17 | N#Cc1c(N2CC[C@@H](OC(=O)NC3CCN(C4CCCC4)CC3)C2)cn[nH]c1=O [P-0151, (R)-1-(5-cyano-6-oxo-1,6-dihydropyridazin-4-yl)pyrrolidin-3-yl (1-cyclopentylpiperidin-4-yl)carbamate] | 0.001 to 10 µM | 0.001 to 10 µM
18 | O=C(N[C@H]1CC[C@H](NS(=O)(=O)C2CC2)CC1)O[C@@H]1CCN(c2cn[nH]c(=O)c2Cl)C1 [P-0152, (R)-1-(5-chloro-6-oxo-1,6-dihydropyridazin-4-yl)pyrrolidin-3-yl ((1r,4R)-4-(cyclopropanesulfonamido)cyclohexyl)carbamate] | 0.001 to 10 µM | 0.001 to 10 µM
19 | O=C(N[C@H]1CC[C@H](NS(=O)(=O)NC2CCCC2)CC1)O[C@@H]1CCN(c2cn[nH]c(=O)c2Cl)C1 [P-0153, (R)-1-(5-chloro-6-oxo-1,6-dihydropyridazin-4-yl)pyrrolidin-3-yl ((1r,4R)-4-((N-cyclopentylsulfamoyl)amino)cyclohexyl)carbamate] | 0.001 to 10 µM | 0.001 to 10 µM
20 | Cc1c(N2CC[C@@H](OC(=O)NC3CCC(F)(F)C3)C2)cn[nH]c1=O (stereo partly drawn) [P-0154, (R)-1-(5-methyl-6-oxo-1,6-dihydropyridazin-4-yl)pyrrolidin-3-yl (3,3-difluorocyclopentyl)carbamate] | 0.001 to 10 µM | 0.001 to 10 µM
21 | Cn1ncc(N2CC[C@@H](OC(=O)NC3CCCC3)C2)c(Cl)c1=O [P-0155, (R)-1-(5-chloro-1-methyl-6-oxo-1,6-dihydropyridazin-4-yl)pyrrolidin-3-yl cyclopentylcarbamate] | 0.001 to 10 µM | 0.001 to 10 µM
22 | O=C(N[C@H]1CC[C@H](NS(=O)(=O)c2ccccc2)CC1)O[C@@H]1CCN(c2cn[nH]c(=O)c2Cl)C1 [P-0158, (R)-1-(5-chloro-6-oxo-1,6-dihydropyridazin-4-yl)pyrrolidin-3-yl ((1r,4R)-4-(phenylsulfonamido)cyclohexyl)carbamate] | 0.001 to 10 µM | 0.001 to 10 µM
23 | CC(C)(C)OC(=O)NCC(=O)N1CCC(NC(=O)O[C@@H]2CCN(c3cn[nH]c(=O)c3Cl)C2)CC1 [P-0160, (R)-1-(5-chloro-6-oxo-1,6-dihydropyridazin-4-yl)pyrrolidin-3-yl (1-((tert-butoxycarbonyl)glycyl)piperidin-4-yl)carbamate] | 0.001 to 10 µM | 0.001 to 10 µM
